This note sets out measurements from publication PMC5104480 (PLoS ONE, 2016).

Data set [1] is described as follows: Glucuronidation kinetics of diosmetin and chrysoeriol by HLMs. Particulars: human, liver microsomes, pH 7.4, Vmax/Km, formation of the named glucuronide. In kind it is in vitro ADME, human. As to the method: (§1) All metabolism studies in vitro were approved by the First Hospital Affiliated to Shihezi University Research Ethics Committee. The glucuronidation assay was performed as described in previous publications. […] The incubation volumes were 120 μL, and the total organic solvent content was 1%. […] The reactions were initiated by adding UDPGA (3.5 mM) at 37°C and then allowed to stand for 30 min in a water bath. These reactions were terminated by adding 60 μL ice-cold acetonitrile containing the IS (25 nM tilianin). […] All experiments were performed in triplicate. The enzyme kinetic parameters were obtained by fitting kinetic models to the experimental data using GraphPad Prism version 5.04 for Windows (GraphPad Software Inc., San Diego, CA, USA). The best model was selected based on visual inspection of the Eadie-Hofstee plots, the calculated r^2 values, and corrected Akaike’s information criterion. The HLMs or human expressed UGT enzymes were employed for kinetic studies at concentrations ranging from 0.0021 mg/mL to 0.0053 mg/mL. The rates of the glucuronidation were fitted to the following equations: V = Cmetabolite/t×Cprotein Where V (nmol/mg/min) is the rates of the glucuronidation, Cmetabolite (μM) and Cprotein (mg/mL) respectively are the concentration of the metabolite and the reaction protein, t (min) is the reaction time. Model selection was based on visual inspection of Eadie—Hofstee plots and it was reported in our previous study. In brief, if the Eadie—Hofstee plot was linear, formation rates (V) of glucuronides at different substrate concentrations (C) were fitted to the standard Eq (1): V = Vmax×C/Km+C (1) where Km is the Michaelis-Menten constant and Vmax is the maximum rate of glucuronidation. The intrinsic clearance (CLint) was derived by Vmax/Km. […] The intrinsic clearance (CLint) was derived by Vmax1/Km1.

The subject of data set [2] is human liver microsomes (HLMs). The description is as above. In kind it is in vitro ADME. Particulars: for Kinetic profile of glucuronide formation: Eadie—Hofstee plots; for Km / Vmax: formation of the named glucuronide from diosmetin or chrysoeriol. As to the method:
as §1

The target of data set [3] is T1, UGT1A9 (Homo sapiens, UniProt O60656).
T1 construct: purchased BD Biosciences (Woburn, MA, USA)
T1 sequence (O60656 26-530): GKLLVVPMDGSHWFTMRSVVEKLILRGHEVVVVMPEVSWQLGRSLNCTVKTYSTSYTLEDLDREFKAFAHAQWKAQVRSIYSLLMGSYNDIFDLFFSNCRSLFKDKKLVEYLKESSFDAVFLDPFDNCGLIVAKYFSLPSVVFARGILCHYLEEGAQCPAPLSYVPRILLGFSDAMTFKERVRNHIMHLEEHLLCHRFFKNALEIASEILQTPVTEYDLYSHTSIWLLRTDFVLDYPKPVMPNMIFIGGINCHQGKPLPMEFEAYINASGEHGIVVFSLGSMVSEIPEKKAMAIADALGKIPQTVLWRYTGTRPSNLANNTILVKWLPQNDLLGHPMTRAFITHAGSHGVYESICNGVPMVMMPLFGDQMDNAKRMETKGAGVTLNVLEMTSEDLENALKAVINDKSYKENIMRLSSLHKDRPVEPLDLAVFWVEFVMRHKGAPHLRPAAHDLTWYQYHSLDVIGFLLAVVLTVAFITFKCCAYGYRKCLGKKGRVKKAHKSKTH
The experiment in a line: Glucuronidation by human expressed UGT1A9 (screening and kinetics). In kind it is in vitro ADME. Particulars: for Kinetic profile of glucuronide formation: Eadie—Hofstee plots; for microsomal CLint: human, expressed (recombinant) human UGT1A9, pH 7.4, Vmax/Km; for Vmax: substrate diosmetin (Dio-3′-G) or chrysoeriol (Chr-7-G). As to the method: as §1, with “Vmax1/Km1. The method of this study as described in detail previously. […] The incubation conditions were as follows: protein concentration: 0.0053 mg/mL; temperature of water: 37°C; shaker speed: 50 rpm; reaction time: 30 min. After incubation, all samples were pretreated as described above and analyzed by UHPLC—MS/MS.” for “Vmax1/Km1.”

In data set [4] the test system is HeLa—UGT1A9 cells. The experiment in a line: Glucuronide excretion at different substrate concentrations in HeLa—UGT1A9 cells. It is filed as cell-based. Particulars: for substrate concentration at which the excretion rate reached a peak: diosmetin or chrysoeriol 1.25-40 μM. The method, then: (§2) The excretion rates, glucuronides intracellular, Glucuronides excretion, the clearance of efflux transporter (CL) and the fraction of the metabolized dose (fmet) experiments were calculated as described in detail previously.

Data set [5] deals with T2, BCRP (Homo sapiens, UniProt Q9UNQ0).
T2 construct: endogenous in cells; host or cells: HeLa cells stably transfected with UGT1A9 (from Dr. Ming Hu, University of Houston)
T2 sequence (Q9UNQ0 1-655): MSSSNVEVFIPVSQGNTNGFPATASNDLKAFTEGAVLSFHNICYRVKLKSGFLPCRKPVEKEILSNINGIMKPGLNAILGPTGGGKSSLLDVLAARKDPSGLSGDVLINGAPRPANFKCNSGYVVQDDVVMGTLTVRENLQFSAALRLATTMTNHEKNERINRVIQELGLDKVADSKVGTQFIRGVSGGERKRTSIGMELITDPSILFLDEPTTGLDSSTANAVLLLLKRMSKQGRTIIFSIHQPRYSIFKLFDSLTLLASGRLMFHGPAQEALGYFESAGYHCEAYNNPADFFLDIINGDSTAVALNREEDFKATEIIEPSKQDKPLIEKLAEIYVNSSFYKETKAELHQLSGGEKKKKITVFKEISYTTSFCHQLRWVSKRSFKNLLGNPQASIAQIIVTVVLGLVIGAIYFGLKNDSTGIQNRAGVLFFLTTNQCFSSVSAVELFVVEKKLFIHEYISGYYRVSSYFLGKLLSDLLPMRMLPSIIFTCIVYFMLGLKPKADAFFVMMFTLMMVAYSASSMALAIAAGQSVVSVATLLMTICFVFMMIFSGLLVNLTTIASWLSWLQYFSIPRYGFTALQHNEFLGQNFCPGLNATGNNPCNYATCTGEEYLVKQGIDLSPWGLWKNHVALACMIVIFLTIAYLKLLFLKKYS
In words: Effect of BCRP inhibitor Ko143 on glucuronide excretion in HeLa—UGT1A9 cells. It is filed as cell-based. As to the method:
as §2

Data set [6] concerns the target T3, UGT1A6 (Homo sapiens, UniProt P19224).
T3 construct: purchased BD Biosciences (Woburn, MA, USA)
T3 sequence (P19224 27-532): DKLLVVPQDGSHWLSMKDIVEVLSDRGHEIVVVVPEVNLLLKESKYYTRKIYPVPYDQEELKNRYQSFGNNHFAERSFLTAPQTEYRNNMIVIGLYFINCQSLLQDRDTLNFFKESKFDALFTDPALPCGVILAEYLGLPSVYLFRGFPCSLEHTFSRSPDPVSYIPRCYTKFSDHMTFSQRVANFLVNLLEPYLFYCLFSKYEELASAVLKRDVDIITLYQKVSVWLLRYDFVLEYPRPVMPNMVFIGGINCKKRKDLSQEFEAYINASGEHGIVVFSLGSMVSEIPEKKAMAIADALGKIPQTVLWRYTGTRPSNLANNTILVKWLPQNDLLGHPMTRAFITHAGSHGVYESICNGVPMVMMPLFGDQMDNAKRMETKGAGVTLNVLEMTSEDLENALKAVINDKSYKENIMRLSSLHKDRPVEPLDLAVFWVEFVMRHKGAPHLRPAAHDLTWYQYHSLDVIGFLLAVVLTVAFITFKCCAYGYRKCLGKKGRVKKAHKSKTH
In words: Glucuronidation by human expressed UGT1A6 (screening and kinetics). It is filed as in vitro ADME. As to the method:
as §1, with “Vmax1/Km1. The method of this study as described in detail previously. […] After incubation, all samples were pretreated as described above and analyzed by UHPLC—MS/MS.” for “Vmax1/Km1.”

For data set [7], the target named is T4, UGT1A1 (Homo sapiens, UniProt P22309).
T4 construct: purchased BD Biosciences (Woburn, MA, USA)
T4 sequence (P22309 26-533): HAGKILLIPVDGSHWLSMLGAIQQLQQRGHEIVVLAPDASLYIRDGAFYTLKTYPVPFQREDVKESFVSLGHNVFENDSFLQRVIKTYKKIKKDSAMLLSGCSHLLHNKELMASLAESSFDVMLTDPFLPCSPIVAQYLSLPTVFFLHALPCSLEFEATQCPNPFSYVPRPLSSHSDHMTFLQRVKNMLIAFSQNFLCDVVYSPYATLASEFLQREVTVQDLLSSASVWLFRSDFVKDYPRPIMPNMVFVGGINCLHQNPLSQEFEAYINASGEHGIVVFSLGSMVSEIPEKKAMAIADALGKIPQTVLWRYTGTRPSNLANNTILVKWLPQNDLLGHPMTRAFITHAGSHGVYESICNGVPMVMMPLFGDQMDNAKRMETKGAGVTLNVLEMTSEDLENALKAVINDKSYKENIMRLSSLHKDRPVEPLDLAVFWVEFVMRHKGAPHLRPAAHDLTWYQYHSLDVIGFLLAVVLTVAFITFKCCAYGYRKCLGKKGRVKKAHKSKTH
The experiment in a line: Glucuronidation kinetics by human expressed UGT1A1. In kind it is in vitro ADME. The method, then: as §1

[8] abbreviates: 5 μM Ko143, 2.5 μM diosmetin or chrysoeriol.
[9] abbreviates: 10 μM Ko143, 2.5 μM diosmetin or chrysoeriol.

SMILES strings stand for the structures.

Turning to `COc1cc(-c2cc(=O)c3c(O)cc(O[C@@H]4O[C@H](C(=O)O)[C@@H](O)[C@H](O)[C@H]4O)cc3o2)ccc1O` [Chr-7-G, chrysoeriol-7-O-glucuronide], the microsomal CLint in data set [1] amounted to 40 µL/min/mg; in data set [3] it was 480 µL/min/mg. In addition, the “Kinetic profile of glucuronide formation” value in data set [2] is on record as “classic Michaelis—Menten kinetics”; in data set [3], “classic Michaelis-Menten kinetic characteristics”. Besides, in data set [2], the Km amounted to 3.83 ± 0.55 µM. The Vmax in data set [2] was 0.15 ± 0.01 nmol/mg/min; in data set [3], 0.12 ± 0.01 nmol/mg/min. For the same compound, in data set [4], the “substrate concentration at which the excretion rate reached a peak” value was 2.5 µM. Moreover, the “increase of total intracellular amount of glucuronide compared with the control” value (from here on “increase”) is 1.3 fold in data set [5] (setting [8]) and 1.7 fold in data set [5] (setting [9]).
As to `COc1ccc(-c2cc(=O)c3c(O)cc(O)cc3o2)cc1O[C@@H]1O[C@H](C(=O)O)[C@@H](O)[C@H](O)[C@H]1O` [Dio-3′-G, diosmetin-3′-O-glucuronide], the microsomal CLint was 6250 µL/min/mg in data set [1] and 9520 µL/min/mg in data set [3]. The “Kinetic profile of glucuronide formation” value in data set [2] is listed as “classic Michaelis—Menten kinetics”; in data set [3] it was “classic Michaelis-Menten kinetic characteristics”. In addition, in data set [2], the Km was 0.19 ± 0.02 µM. Besides, the values for the maximum rate (Vmax) in data set [2] and in data set [3] were 1.16 ± 0.03 nmol/mg/min and 4.27 ± 0.13 nmol/mg/min, respectively. Also, the “substrate concentration at which the excretion rate reached a peak” value in data set [4] came to 2.5 µM. The “increase” value in data set [5] (setting [8]) was determined as 1.3 fold; in data set [5] (setting [9]), 1.8 fold.
As to `COc1ccc(-c2cc(=O)c3c(O)cc(O[C@@H]4O[C@H](C(=O)O)[C@@H](O)[C@H](O)[C@H]4O)cc3o2)cc1O` [Dio-7-G, Diosmetin-7-O-glucuronide], the microsomal CLint in data set [1] came out at 130 µL/min/mg; in data set [6] (human, expressed (recombinant) human UGT1A6, pH 7.4, Vmax/Km), 300 µL/min/mg. The “Kinetic profile of glucuronide formation” value is reported as “substrate inhibition profiles” in data set [2] and “substrate inhibition kinetic characteristics” in data set [6] (Eadie—Hofstee plots). Also, the Km in data set [2] amounted to 4.66 ± 0.72 µM. Besides, the maximum rate (Vmax) was found to be 0.61 ± 0.05 nmol/mg/min in data set [2] and 0.92 ± 0.06 nmol/mg/min in data set [6] (substrate diosmetin). Moreover, in data set [4], the “substrate concentration at which the excretion rate reached a peak” value is 10 µM. Further, the “increase” value in data set [5] (setting [8]) is 1.1 fold; in data set [5] (setting [9]) it was 1.5 fold.
As for `COc1cc(-c2cc(=O)c3c(O)cc(O)cc3o2)ccc1O[C@@H]1O[C@H](C(=O)O)[C@@H](O)[C@H](O)[C@H]1O` [Chr-4′-G, chrysoeriol-4′-O-glucuronide], the microsomal CLint in data set [1] is 1270 µL/min/mg; in data set [7] (human, expressed (recombinant) human UGT1A1, pH 7.4, Vmax/Km), 2260 µL/min/mg. The “Kinetic profile of glucuronide formation” value in data set [2] was “substrate inhibition profiles”; in data set [7] (Eadie—Hofstee plots), “substrate inhibition kinetic characteristics”. In addition, in data set [2], the Km was found to be 0.15 ± 0.03 µM. The values for the Vmax in data set [2] and in data set [7] (substrate chrysoeriol) were 0.20 ± 0.01 nmol/mg/min and 0.63 ± 0.06 nmol/mg/min, respectively. Moreover, the “substrate concentration at which fmet reached a peak” value in data set [4] (chrysoeriol 1.25-40 μM) stood at 2.5 µM. For the same compound, the “substrate concentration at which the excretion rate reached a peak” value in data set [4] was found to be 2.5 µM. In addition, the “increase” value in data set [5] (setting [8]) is on record as 1.3 fold; in data set [5] (setting [9]), 1.8 fold.
